Columns and labels:
[1] = tested on: human hepatocytes (hES15); test: Cytokine ELISA secretion profiling of human hepatocytes after drug treatment
Experimental: Upon completion of the culture, the maturation of hepatocytes was induced by the same manner as described in Example 1 and then the matured hepatocytes were obtained (FIG. 1).
(§1) Particularly, the hepatocytes at 19th day of the differentiation from human stem cells, which were prepared by the method described in Example 1, were distributed in a 6-well plate (90%/well), and then the medium was replaced with 1000 mg/L DMEM-low glucose medium (Dulbecco's Modified Eagle's Medium, Welgene No. 001-11), followed by culture for 2 hours. Then, the stem cell derived hepatocyte culture medium was obtained. To eliminate by-products of the cell culture, centrifugation was performed at 12,000×g, for 20 minutes at 4° C. Supernatant was obtained. The capture antibodies, 2.5 μg/ml anti-IL-1β antibody, 2 μg/ml anti-IL-6 antibody, 2.5 μg/ml anti-IL-10 antibody, 2 μg/ml anti-IL-12 antibody, 1 μg/ml anti-TNF-α antibody, 2 μg/ml anti-IFN-α antibody, 1 μg/ml anti-IFN-β antibody, and 2 μg/ml anti-TGF-β antibody, were cultured at 37° C. for 2 hours, with which 96-well ELISA plate was coated. The plate was washed, followed by blocking with 0.2% I-block (Foster city, CA) at 37° C. for 2 hours. Upon completion of the blocking, the capture antibodies were washed and cultured with a standard material (2 fold serial diluted in protein free flexible plate from 10 ng/ml to 4.88 pg/ml) and the supernatant in ELISA plate (Greiner, Kremsmunster, Austria) at 37° C. for 2 hours. Upon completion of the culture, the biotinylated detection antibodies (anti-IL-1β antibody: 2 μg/ml, anti-IL-6 antibody: 1 μg/ml, anti-IL-10 antibody: 1 μg/ml, anti-IL-12 antibody: 1 μg/ml, anti-TNF-α antibody: 1 μg/ml, anti-IFN-α antibody: 4 μg/ml, anti-IFN-β antibody: 2 μg/ml, anti-TGF-β antibody: 1 μg/ml, final concentration) were added thereto, followed by further culture at 37° C. for 2 hours. Then, alkaline phosphatase conjugated streptavidin was added thereto, followed by further culture at room temperature for 30 minutes. 5 mM nitrophenyl phosphate substrate was added thereto, and OD405 was measured by using ELISA reader.
Particularly, the hepatocytes at 19th day of the differentiation from human stem cells, which were prepared by the method described in Example 1, were distributed in a 6-well plate (90%/well), and then the medium was replaced with 1000 mg/L DMEM-low glucose medium (Dulbecco's Modified Eagle's Medium, Welgene No. 001-11), followed by culture for 2 hours. […] Then, culture fluids of the hepatocytes differentiated from stem cells and the human hepatocytes were obtained to extract immunotoxic materials therefrom. To eliminate by-products of the cultured cells, centrifugation was performed at 12,000×g for 20 minutes at 4° C., and then supernatant was obtained. […]

[2] = tested on: hepatocytes differentiated from human embryonic stem cells (hESC4); test: Cytokine ELISA secretion profiling of stem cell derived hepatocytes after drug treatment; settings: ELISA of supernatant
Experimental: as §1
(§2) Particularly, the hepatocytes at 19th day of the differentiation from human stem cells, which were prepared by the method described in Example 1, were distributed in a 6-well plate (90%/well), and then the medium was replaced with 1000 mg/L DMEM-low glucose medium (Dulbecco's Modified Eagle's Medium, Welgene No. 001-11), followed by culture for 2 hours.

[3] = tested on: hepatocytes differentiated from human embryonic stem cells (hESC4)
Experimental: as §1, §2

[4] = CCl4 0, 5, 10, 20 mM for 24 hours, ELISA of supernatant
[5] = CCl4 0, 5, 10, 20 mM for 24 hours

SMILES	IFN-α detected [1, 4]	IL-10 detected [1, 4]	cytokine secretion compared with hepatocytes differentiated from stem cells ([1]; considering the smaller number of human hepatocytes, CCl4: cytokines, acetaminophen: IL-6 and IFN-β)	IL-6 detected ([1]; treatment for 24 hours (CCl4 0, 5, 10, 20 mM; acetaminophen 0, 10, 20 mM), ELISA of supernatant)	IFN-α detected [2, 5]	IL-10 detected [2, 5]	IL-6 detected ([2]; treatment for 24 hours (CCl4 0, 5, 10, 20 mM; acetaminophen 0, 10, 20 mM))	ethanol induced toxic reaction [3]
ClC(Cl)(Cl)Cl [CCl4]	also detected in the cells	also detected in the cells	secreted more in human hepatocytes	also detected in the cells	detected in the cells CCl4 dose dependently	detected in the cells CCl4 dose dependently	detected in the cells CCl4 dose dependently	
CCO [ethanol]								did not show ethanol induced toxic reaction
